Assay results from patent US12427134B2, “Methods of reducing the risk of cardiovascular events in a subject with atrial fibrillation and/or atrial flutter” (priority 2019, dated 2025).
Where two headings read alike, the source gives them in different places.

Tested on: hypertriglyceridemic patients with cardiovascular disease or at high risk for cardiovascular disease
Conditions: human, in vivo
Protocol: The following clinical events that were positively adjudicated by the Clinical Endpoint Committee were analyzed as tertiary endpoints for the ITT intent-to-treat (ITT) population: • Composition of total mortality, or congestive heart failure (CHF); • Composite of CV death, or new CHF; • Sudden cardiac death; • Peripheral artery disease (PAD); and • Atrial fibrillation, or atrial flutter.
Definition of Cardiac Arrhythmia Requiring Hospitalization: An arrhythmia that either results in hospitalization (≥24 hours) during or within 24 hours of the termination of the last episode for treatment or requires continued hospitalization for treatment, including any one of the following: • Atrial arrhythmia—atrial fibrillation, atrial flutter, supraventricular tachycardia that requires cardio-version, drug therapy, or is sustained for greater than 1 minute; • Ventricular arrhythmia—Ventricular tachycardia or ventricular fibrillation requiring cardio-version and/or intravenous antiarrhythmics; and/or • Bradyarrhythmia—High-level AV block (defined as third-degree AV block or second-degree AV block), junctional or ventricular escape rhythm, or severe sinus bradycardia (typically with heart rate <30 bpm). The bradycardia must require temporary or permanent pacing.
The objective of the following study was to determine how icosapent ethyl affected the incidence of atrial fibrillation and/or flutter in patients from the REDUCE-IT trial, as described in Example 1.
Although not pre-specified as TEAEs of special interest, atrial fibrillation and atrial flutter were also explored post hoc as potential safety signals as discussed above in Example 7. A summary of TEAEs and SAEs of atrial fibrillation/flutter is presented in Table 83, along with positively adjudicated atrial fibrillation/flutter requiring hospitalization of ≥24 hours as a comprehensive compilation of all documented post-randomization occurrences of these atrial arrhythmias. Occurrences of atrial fibrillation or flutter not meeting endpoint criteria (i.e., not positively adjudicated as endpoints) were counted as TEAEs or SAEs, per seriousness criteria.

CC/C=C\C/C=C\C/C=C\C/C=C\C/C=C\CCCC(=O)OCC [AMR101, eicosapentaenoic acid ethyl ester]
Adjudicated as Bradycardia/Heart Block (without Hosp. ≥24 hrs), patients (%): (0.0) %
Adjudicated as VTA/F (without Hosp. ≥24 hrs), patients (%): (0.0) %
Atrial fibrillation TEAE, Event Rate: 5.3%
Atrial fibrillation TEAE, Number of Subjects: 215
Atrial fibrillation and/or flutter adverse events, SAEs: 0.5%
Atrial fibrillation and/or flutter adverse events, TEAEs: 5.8%
Atrial fibrillation or atrial flutter requiring hospitalization of ≥24 hours, patients with event: 3.1%
Atrial fibrillation/flutter AEs, %: (7.7) %
Atrial fibrillation/flutter AEs, (%): 5.8%
Atrial fibrillation/flutter SAEs (not positively adjudicated as endpoints), patients: 0.6%
Atrial fibrillation/flutter TEAEs (not positively adjudicated as endpoints), patients: 7.7%
Positively Adjudicated Atrial Fibrillation/Flutter (requiring hospitalization): 127 (3.1%) n (%)
Positively adjudicated Afib/Aflutter requiring ≥24 hours hospitalization, (%): 3.1%
Positively adjudicated atrial fibrillation/flutter requiring ≥24 hours hospitalization, %: (3.1) %
Serious Afib/Aflutter AEs, (%): 0.5%
Serious atrial fibrillation/flutter AEs, %: (0.6) %
Subjects with at least one Atrial Fibrillation/Atrial Flutter event: 321
Treatment-emergent atrial fibrillation (Serious), Event Rate: 0.5%
Treatment-emergent atrial fibrillation (Serious), Number of Subjects: 21
Treatment-emergent atrial fibrillation, Event Rate: 5.3%
Treatment-emergent atrial fibrillation, Number of Subjects: 215
Treatment-emergent atrial flutter (Serious), Event Rate: 0.0%
Treatment-emergent atrial flutter (Serious), Number of Subjects: 1
Treatment-emergent atrial flutter, Event Rate: 0.8%
Treatment-emergent atrial flutter, Number of Subjects: 32
First onset of atrial fibrillation and/or flutter, Icosapent Ethyl-Placebo Risk Diff., % (95% CI) (0.5 years): −0.00%
First onset of atrial fibrillation and/or flutter, Icosapent Ethyl-Placebo Risk Diff., % (95% CI) (1 year): 0.20%
First onset of atrial fibrillation and/or flutter, Icosapent Ethyl-Placebo Risk Diff., % (95% CI) (1.5 years): 0.51%
First onset of atrial fibrillation and/or flutter, Icosapent Ethyl-Placebo Risk Diff., % (95% CI) (2 years): 0.59%
First onset of atrial fibrillation and/or flutter, Icosapent Ethyl-Placebo Risk Diff., % (95% CI) (2.5 years): 0.78%
First onset of atrial fibrillation and/or flutter, Icosapent Ethyl-Placebo Risk Diff., % (95% CI) (3 years): 0.83%
First onset of atrial fibrillation and/or flutter, Icosapent Ethyl-Placebo Risk Diff., % (95% CI) (3.5 years): 1.17%
First onset of atrial fibrillation and/or flutter, Icosapent Ethyl-Placebo Risk Diff., % (95% CI) (4 years): 1.23%
First onset of atrial fibrillation and/or flutter, Icosapent Ethyl-Placebo Risk Diff., % (95% CI) (4.5 years): 1.00%
First onset of atrial fibrillation and/or flutter, Icosapent Ethyl-Placebo Risk Diff., % (95% CI) (5 years): 1.08%
First onset of atrial fibrillation and/or flutter, Icosapent Ethyl-Placebo Risk Diff., % (95% CI) (5.5 years): 1.00%
Positively adjudicated atrial fibrillation and/or flutter, incidence (6 months): 0.3%
First onset of atrial fibrillation and/or flutter, Icosapent Ethyl-Placebo Risk Diff., % (95% CI) (6 years): 2.07%
